Patent US10167262B2, “Herbicidal substituted 3-arylpyrazoles” (FMC CORPORATION, priority 2014, dated 2019)

Assays:
Test in all cases: Test C pre-/postemergence greenhouse test, plant response rating 0-100
Type in all cases: in vivo
Settings in all cases: Postemergence
[1] = tested on: velvetleaf (Abutilon theophrasti)
Procedure, shortened: (§1)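 Greenhouse test. Preemergence: seed in loam:sand, sprayed with formulated chemical (solvent + surfactant). Postemergence: 1–4 leaf plants, 2–18 cm, peat-based potting medium. Hold 13–15 d; score visually, 0 (none) to 100 (complete control); dash = not tested.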

soybean (Glycine max) = tested on: soybean (Glycine max)
Procedure, shortened: as §1

[2] = tested on: yellow nutsedge (Cyperus esculentus)
Procedure, shortened: as §1

[3] = tested on: large (Lg) crabgrass (Digitaria sanguinalis)
Procedure, shortened: as §1

[4] = tested on: galium (catchweed bedstraw, Galium aparine)
Procedure, shortened: as §1

[5] = tested on: lambsquarters (Chenopodium album)
Procedure, shortened: as §1

[6] = tested on: pigweed (Amaranthus retroflexus)
Procedure, shortened: as §1

[7] = tested on: morningglory (Ipomoea coccinea)
Procedure, shortened: as §1

[8] = tested on: giant foxtail (Setaria faberii)
Procedure, shortened: as §1

[9] = tested on: winter wheat (Triticum aestivum)
Procedure, shortened: as §1

[10] = tested on: Italian ryegrass (Lolium multiflorum)
Procedure, shortened: as §1

corn (Zea mays) = tested on: corn (Zea mays)
Procedure, shortened: as §1

[11] = tested on: johnsongrass (Sorghum halepense)
Procedure, shortened: as §1

O=C(c1ccccc1)c1cn(S(=O)(=O)CCl)nc1-c1cc(Cl)cc(Cl)c1 [Compound 1]
Plant response rating (0 to 100), Velvetleaf ([1]; 62 g ai/ha): 70 | Plant response rating (0 to 100), Velvetleaf ([1]; 125 g ai/ha): 75 | Plant response rating, Velvetleaf ([1]; 250 g ai/ha, scale 0 to 100): 80 | Plant response rating (0 to 100), Soybean (soybean (Glycine max); 62 g ai/ha): 0 | Plant response rating (0 to 100), Soybean (soybean (Glycine max); 125 g ai/ha): 0 | Plant response rating, Soybean (soybean (Glycine max); 250 g ai/ha, scale 0 to 100): 0 | Plant response rating (0 to 100), Nutsedge, Yellow ([2]; 62 g ai/ha): 0 | Plant response rating (0 to 100), Nutsedge, Yellow ([2]; 125 g ai/ha): 0 | Plant response rating, Nutsedge, Yellow ([2]; 250 g ai/ha, scale 0 to 100): 10 | Plant response rating (0 to 100), Crabgrass, Large ([3]; 31 g ai/ha): 0 | Plant response rating (0 to 100), Crabgrass, Large ([3]; 62 g ai/ha): 0 | Plant response rating (0 to 100), Crabgrass, Large ([3]; 125 g ai/ha): 0 | Plant response rating, Crabgrass, Large ([3]; 250 g ai/ha, scale 0 to 100): 0 | Plant response rating (0 to 100), Galium ([4]; 31 g ai/ha): 0 | Plant response rating (0 to 100), Galium ([4]; 62 g ai/ha): 0 | Plant response rating (0 to 100), Galium ([4]; 125 g ai/ha): 0 | Plant response rating, Galium ([4]; 250 g ai/ha, scale 0 to 100): 20 | Plant response rating (0 to 100), Lambsquarters ([5]; 62 g ai/ha): 70 | Plant response rating (0 to 100), Lambsquarters ([5]; 125 g ai/ha): 85 | Plant response rating, Lambsquarters ([5]; 250 g ai/ha, scale 0 to 100): 85 | Plant response rating (0 to 100), Pigweed ([6]; 62 g ai/ha): 98 | Plant response rating (0 to 100), Pigweed ([6]; 125 g ai/ha): 100 | Plant response rating, Pigweed ([6]; 250 g ai/ha, scale 0 to 100): 100 | Plant response rating (0 to 100), Morningglory ([7]; 62 g ai/ha): 0 | Plant response rating (0 to 100), Morningglory ([7]; 125 g ai/ha): 0 | Plant response rating, Morningglory ([7]; 250 g ai/ha, scale 0 to 100): 0 | Plant response rating (0 to 100), Foxtail, Giant ([8]; 31 g ai/ha): 0 | Plant response rating (0 to 100), Foxtail, Giant ([8]; 62 g ai/ha): 0 | Plant response rating (0 to 100), Foxtail, Giant ([8]; 125 g ai/ha): 0 | Plant response rating, Foxtail, Giant ([8]; 250 g ai/ha, scale 0 to 100): 0 | Plant response rating (0 to 100), Wheat ([9]; 62 g ai/ha): 0 | Plant response rating (0 to 100), Wheat ([9]; 125 g ai/ha): 0 | Plant response rating, Wheat ([9]; 250 g ai/ha, scale 0 to 100): 0 | Plant response rating (0 to 100), Ryegrass, Italian ([10]; 62 g ai/ha): 0 | Plant response rating (0 to 100), Ryegrass, Italian ([10]; 125 g ai/ha): 0 | Plant response rating, Ryegrass, Italian ([10]; 250 g ai/ha, scale 0 to 100): 0 | Plant response rating (0 to 100), Corn (corn (Zea mays); 31 g ai/ha): 0 | Plant response rating (0 to 100), Corn (corn (Zea mays); 62 g ai/ha): 0 | Plant response rating (0 to 100), Corn (corn (Zea mays); 125 g ai/ha): 0 | Plant response rating, Corn (corn (Zea mays); 250 g ai/ha, scale 0 to 100): 0 | Plant response rating (0 to 100), Johnsongrass ([11]; 62 g ai/ha): 0 | Plant response rating (0 to 100), Johnsongrass ([11]; 125 g ai/ha): 0 | Plant response rating, Johnsongrass ([11]; 250 g ai/ha, scale 0 to 100): 0
